Laboratory results from patent US20220047718A1, “Nanoparticle-Based Therapy of Inflammatory Disorders” (priority 2018, published 2022).

Assays:
[1] = Formulation into Carbopol 980 gel: precipitation / homogeneity; assay type: physicochemical; conditions: for precipitation / homogeneity in 2% Carbopol 980 gel: Carbopol 980 adjusted to pH 7.4 prior to addition
Description: Gels were prepared by dispersing 1-3% w/v of Carbopol polymer (w/v) into purified water with constant mixing and thus allowed to hydrate for 5 hours. Care was taken to avoid air entrapment by agitating the solution slowly on a rocker during preparation of the gel. After 5 hours, the pH of the gel was adjusted to pH 7.4 using triethylamine (Sigma-Aldrich, Lot #STBF616V) to neutralise the pH and turn the solution into a gel (triethanolamine is contemplated herein as a suitable alternative to triethylamine).
For production of methotrexate-GNP hydrogel, 2% w/v Carbopol®980 was initially dispersed for 5 hours with constant mixing. […] Plain methotrexate drug gel was prepared by dissolving MTX-PEG3-NH2 in water and adjusting the pH to pH 4.5. The MTX-PEG3-NH2 solution was added to the previously made 2% Carbopol®980 solution.
The method for formulating gold nanoparticles into Carbopol®980 gels was optimised by testing the effects of pH and speed of addition of nanoparticles using control [α-Gal][PEG8COOH]@Au GNPs. […] The gels were all stored at 4° C.
For production of methotrexate-GNP hydrogel, 2% w/v Carbopol®980 was dispersed for 5 hours with constant mixing. The pH of the Carbopol®980 solution was adjusted to pH 7.4 to produce a clear gel. […] Plain methotrexate drug gel was prepared by adding MTX-PEG3-NH2 dissolved in water to the pH 7.4 adjusted Carbopol®980 gel (2%).

[2] = tested on: Imiquimod (IMQ)-induced mouse model of psoriasis
Description: (a) Experimental Scheme of three-day IMQ treatment with seven-day systemic therapy. (b) (upper panel) change in ear thickness between control (PBS; crosses), IMQ-treated (squares), and systemic MTX therapy receiving (1 mg/kg (upward triangles), 2 mg/kg (downward triangles), 5 mg/kg (diamonds)) animals. (Lower panels) statistical analysis of ear thickness differences between groups between days 4-7.
(a) (upper panel), change in ear thickness between control (PBS, crosses), IMQ-treated (squares), and systemic therapy receiving in addition to IMQ, 2 mg/kg MTX (upward triangles), GNPs containing 5.5 mg/kg Au (downward triangles), and MTX-GNP containing 2 mg/kg MTX and 5.5 mg/kg Au (diamonds). (Lower panels) statistical analysis of ear thickness differences between groups between days 4-7. […] Data is pooled from 2-3 independent experiments, 2 to 5 mice per condition and represented as mean±standard deviation.
Clinical efficacy and in vivo tolerability were assessed against relevant controls for both systemic (subcutaneous injection) and topical administration.
First, we evaluated tolerance of mice to MTX with a dose escalation setup (FIG. 2b).

Row | Compound | precipitation / homogeneity in 2% Carbopol 980 gel [1] | precipitation / homogeneity in 2% Carbopol 980 gel ([1]; listed as modified methotrexate) | precipitation on addition to 2% Carbopol 980 solution ([1]; acidic addition (GNPs pH 2.6; MTX-PEG3-NH2 pH 4.5), Carbopol not neutralised) | animal wellbeing ([2]; mouse, in vivo) | tolerability / systemic toxicity (liver enzyme measurements, daily weight monitoring) ([2]; mouse, in vivo, sc, 2 mg/kg) | IMQ-induced inflammation (ear thickness) ([2]; systemic (subcutaneous), 2 mg/kg MTX daily) | ear thickness / inflammation control ([2]; systemic MTX 5 mg/kg daily)
1 | CN(Cc1cnc2nc(N)nc(N)c2n1)c1ccc(C(=O)NC(CCC(=O)NCCCOCCOCCOCCCN)C(=O)O)cc1 (stereo not shown) [MTX-PEG3-NH2, 4-[(3-{2-[2-(3-aminopropoxy)ethoxy]ethoxy}propyl)carbamoyl]-2-[(4-{[(2,4-diaminopteridin-6-yl)methyl](methyl)amino}phenyl)formamido]butanoic acid] | no precipitation | without precipitation | small level of yellow precipitation |  |  |  | 
2 | CN(Cc1cnc2nc(N)nc(N)c2n1)c1ccc(C(=O)N[C@@H](CCC(=O)O)C(=O)O)cc1 [MTX, Methotrexate] |  |  |  | irrevocably impaired animal wellbeing | tolerable | no significant inflammation control | clinically effective
